Measured values from patent publication US20050196385A1, “Methods for producing gamma delta t cells” (Innate Pharama, priority 2002, published 2005).

Test system: gamma 9 delta 2 T cells
Test: TNF release test after BrHPP stimulation
Type: cell-based, human
Conditions: for TNF alpha production (pg/ml) on 25,000 cells: 3 μM BrHPP, 24 hours, day 21; for Pg/ml of alpha TNF produced by 25 000 cells: cells formulated in HSA 4%, triplicate means
Description: Different tests were carried out on the cells obtained to evaluate their functional activity. In particular, said tests concerned the cytotoxic activity of the cells and their production of TNF. • Cytotoxicity test. For this test, the target cells were isotopically labelled with ^51Cr (10 μl of ^51Cr/1 million target cells in 24-well plates), then incubated for 1 hour at 37° C. The cells were distributed (in duplicate) at a rate of 3000 cells per well in RPMI/10% FCS (50 μl), and spontaneous and maximum release of ^51Cr were determined. Effector cells (gamma delta T cells of the invention) were then added (50 μl in RPMI/10% FCS) to each target, at the following effector/target (E/T) ratios: 30/1, 3/1, 0.3/1, and incubated for 3 to 4 hours at 37° C. Cytotoxic activity (lysis of target cells) was determined by measuring the released radioactivity on 25 μl of supernatant in a β plate counter. • TNF release test. Cells were washed twice in RPMI then cultured in 96-well plates in RPMI/10% FCS in the presence of 3 μM BrHPP for 24 hours. TNF was assayed in the supernatant using the Beckman Coulter Kit Immunotech, ref. IM 11121. IC—Results Choice of Medium
The formulated cell product was tested for functionality by the TNF release test at different time points to evaluate its stability.

CC(O)(CBr)CCOP(=O)(O)OP(=O)(O)O (stereo not shown) [BrHPP, 3-(bromomethyl)-3-butanol-1-yl-diphosphate]
TNF alpha production (pg/ml) on 25,000 cells (cells of donor D623 from fresh MNC): 1332.7 pg/mL
TNF alpha production (pg/ml) on 25,000 cells (cells of donor D623 from frozen MNC): 1442.36 pg/mL
TNF alpha production (pg/ml) on 25,000 cells (cells of donor D711 from fresh MNC): 903.3 pg/mL
TNF alpha production (pg/ml) on 25,000 cells (cells of donor D711 from frozen MNC): 1336.16 pg/mL
TNF alpha production (pg/ml) on 25,000 cells (cells of donor D762 from fresh MNC): 782.08 pg/mL
TNF alpha production (pg/ml) on 25,000 cells (cells of donor D762 from frozen MNC): 973.7 pg/mL
Pg/ml of alpha TNF produced by 25 000 cells (T = 2 h after formulation): 381.358 pg/mL
Pg/ml of alpha TNF produced by 25 000 cells (T = 4 h after formulation): 359.624 pg/mL
Pg/ml of alpha TNF produced by 25 000 cells (T = 8 h after formulation): 327.31 pg/mL
Pg/ml of alpha TNF produced by 25 000 cells (T = 22 h after formulation): 127.56 pg/mL
